Like-named read-outs stand apart in the source and are kept apart here.
Legend:
mice = test: Forced swimming test in mice; type: in vivo; conditions: for ED50: Mus musculus
rats = test: Forced swimming test in rats; type: in vivo; conditions: 4 hours post-treatment
Procedure: Male CD-1 mice (16-24 g) and male Wistar rats (90-125 g) were utilized in these experiments. The test compound (10, 15 and 30 mg/kg) was dissolved in physiological saline (0.9%) and administered orally in a volume of 1 mL/100 g body weight.
Mice and rats were placed in glass cylinders of 1000 ml beakers (height 14 cm, diameter 11.5 cm) and 4000 ml beakers (height 24.5 cm, diameter 18.0 cm), respectively, containing water (25 degrees Celsius) up to a height of 9.0 cm for mice and 19.0 cm for rats. […] Immobility was defined as lack of movement, such as floating in the water with little or no movement of hind legs. Duration of immobility was timed with a stopwatch and recorded. In some experiments, mice or rats were allowed to swim for 6 or 10 minutes, respectively, one day prior to the forced swimming experiment.
In the single dose test, mice or rats were given test compound or 0.9% NaCl and placed in glass cylinders 1 hour or 4 hours post-treatment, respectively. In the multiple dose experiments, mice were dosed twice a day for 3 days and given an additional dose on Day 4. In addition, the mice were placed in the glass cylinders containing water at 25 degrees Celsius and allowed to swim for six minutes on Day 3. Statistical evaluation was performed using a computer program (The Pharmacological Calculation System of Tallarida and Murray (#425475-04-7-1992)) based on probit analysis. Statistical significance was determined using Student's t-test at a P value of <0.05.

[1] = system: adult human subjects with moderate or severe major depression without psychotic features; test: Randomized double-blind placebo- and active-controlled 6-week study in major depression; type: in vivo; conditions: for MADRS response rate / MADRS remission rate: Week 6; for MADRS response rate: >50% improvement in MADRS total score; for MADRS remission rate: MADRS total score less than 9; for 3 Atypical items of HAM-D 31, mean result / CGI-S score, mean result / MADRS core mood subscale, mean result / MADRS sadness (Items 1 + 2), mean result / MADRS total score (primary), mean result / MADRS total score, mean result: change from baseline at Week 6; for ABCD questionnaire items with statistically significant superiority to placebo: post hoc analyses, of 51 items, U.S. sites
Procedure: The primary objective of this study was to determine the efficacy of 2 target doses of test compound (200 and 400 mg/day) in comparison with placebo during 6 weeks of treatment in adult human subjects with moderate or severe major depression without psychotic features. An active comparator (paroxetine) was included to assist in distinguishing a negative study from a failed study. In addition, an exit interview was intended to gather information on unexpected benefits of the test compound in order to refine the clinical development program. […] In addition, positive effects of the test compound on ratings of physical energy/fitness, reduction in sadness or depression and mental energy or motivation.
This was a randomized, double-blind, parallel-group, active, and placebo-controlled, multicenter study conducted in the U.S. (23 centers) and Canada (4 centers). There were 2 phases: a pretreatment phase (screening/washout and a baseline visit) and a 6-week, double-blind treatment phase. Paroxetine, a positive control, was included to evaluate assay sensitivity. After washout (if needed) of prohibited substances, subjects were randomly assigned (1:1:1:1) to receive the test compound titrated to a target dose of 200 mg/day or 400 mg/day, matching placebo, or a fixed dose (20 mg/day) of paroxetine. Study drug was given twice daily for 6 weeks. Efficacy and safety were assessed weekly during the double-blind phase. Subjects completing the study underwent an Exit Interview (“Your Health and Well-Being”) and completed an Assessment of Benefits of Clinical-trial Drug-treatment (ABCD) questionnaire (U.S. sites only).

isolated mice = test: Isolation-induced fighting in mice; type: in vivo; conditions: Mus musculus
Procedure: Male CD-1 mice (15-20 g) were utilized in this experiment. The test compound (15, 22 and 30 mg/kg) was dissolved in physiological saline (0.9%) and administered orally (PO) in a volume of 1 mL/100 g body weight.
Mice were isolated for up to 8 weeks in individual solid walled wire cages (24×20×17 cm). The animals were not disturbed except to replenish food. Aggression was tested by placing an intruder mouse into the home cage of the resident animal. Aggression was characterized by an attack on the “intruder” during a three minute period. […] Only those resident mice displaying fighting behavior were selected. […] ED50 values were calculated from the percent inhibition of fighting in computer program based on probit analysis.

[2] = target: T1, hSERT (human serotonin transporter) (Homo sapiens, UniProt P31645); test: Inhibition of [3H]serotonin uptake in HEK-hSERT cells; type: cell-based
T1 construct: expressed in transfected cells; host or cells: HEK293 (ATCC), puromycin-selected clonal cells

[3] = Per-Protocol (LOCF), TC 200 mg/day
[4] = Per-Protocol (LOCF), TC 400 mg/day

T1 sequence (P31645 whole entry): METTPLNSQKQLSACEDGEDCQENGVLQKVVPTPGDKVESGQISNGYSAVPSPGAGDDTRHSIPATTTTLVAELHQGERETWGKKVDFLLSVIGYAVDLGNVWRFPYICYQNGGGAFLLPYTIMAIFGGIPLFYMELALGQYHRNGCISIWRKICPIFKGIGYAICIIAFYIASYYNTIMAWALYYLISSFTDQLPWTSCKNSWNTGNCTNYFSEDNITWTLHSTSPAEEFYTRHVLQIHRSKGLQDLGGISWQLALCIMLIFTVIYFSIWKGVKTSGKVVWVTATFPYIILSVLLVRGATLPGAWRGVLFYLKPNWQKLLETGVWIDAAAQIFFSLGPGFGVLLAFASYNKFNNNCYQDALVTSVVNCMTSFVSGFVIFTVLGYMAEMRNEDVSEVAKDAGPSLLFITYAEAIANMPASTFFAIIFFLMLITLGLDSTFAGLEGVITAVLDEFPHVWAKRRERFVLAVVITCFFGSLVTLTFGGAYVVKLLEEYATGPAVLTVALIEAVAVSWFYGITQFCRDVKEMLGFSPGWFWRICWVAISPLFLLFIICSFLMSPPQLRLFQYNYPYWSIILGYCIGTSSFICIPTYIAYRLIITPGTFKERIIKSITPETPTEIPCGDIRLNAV

NC(=O)OC[C@H](N)Cc1ccccc1 [test compound, O-carbamoyl-(D)-phenylalaninol]
ED50 (mice; multiple dosing PO (twice a day for 3 days plus a dose on Day 4), read-out: ED50 (reduction of mean immobility time)): 5.5 mg/kg
ED50 (mice; read-out: ED50 (50% reduction in mean immobility time), single dose PO, 1 hour post-treatment): 16.6 mg/kg
mean duration of immobility (mice; multiple dosing 3 mg/kg PO, control 85 sec): 63 s
mean duration of immobility (mice; multiple dosing 5 mg/kg PO, control 136 sec, significant): 73 s
mean duration of immobility (mice; multiple dosing 8 mg/kg PO, control 114 sec, significant): 39 s
mean duration of immobility (mice; single dose 10 mg/kg PO, control 131 sec): 101 s
mean duration of immobility (mice; single dose 15 mg/kg PO, control 154 sec, significant): 80 s
mean duration of immobility (mice; single dose 30 mg/kg PO, control 132 sec, significant): 30 s
mean duration of immobility (rats; 10 mg/kg, control 74 sec, not statistically significant): 62 s
mean duration of immobility (rats; 15 mg/kg, control 65 sec, not statistically significant): 39 s
mean duration of immobility (rats; 30 mg/kg, control 38 sec, significant): 9 s
ED50 (rats; Rattus norvegicus, single dose PO, read-out: ED50 (reduction of mean immobility time)): 18.5 mg/kg
MADRS response rate ([1]; ITT (LOCF), TC 200 mg/day): 36%
MADRS response rate ([1]; ITT (LOCF), TC 400 mg/day): 41%
MADRS remission rate ([1]; ITT (LOCF), TC 200 mg/day): 15%
MADRS remission rate ([1]; ITT (LOCF), TC 400 mg/day): 19%
3 Atypical items of HAM-D 31, mean result ([1]; ITT (LOCF), TC 200 mg/day): −0.4
CGI-S score, mean result ([1]; ITT (LOCF), TC 200 mg/day): −1.2
MADRS core mood subscale, mean result ([1]; ITT (LOCF), TC 200 mg/day): −8.6
MADRS sadness (Items 1 + 2), mean result ([1]; ITT (LOCF), TC 200 mg/day): −3.2
MADRS total score (primary), mean result ([1]; ITT (LOCF), TC 200 mg/day): −12.1
3 Atypical items of HAM-D 31, mean result ([1]; ITT (LOCF), TC 400 mg/day): −0.8
CGI-S score, mean result ([1]; ITT (LOCF), TC 400 mg/day): −1.3
MADRS core mood subscale, mean result ([1]; ITT (LOCF), TC 400 mg/day): −8.7
MADRS sadness (Items 1 + 2), mean result ([1]; ITT (LOCF), TC 400 mg/day): −3.4
MADRS total score (primary), mean result ([1]; ITT (LOCF), TC 400 mg/day): −12.4
superiority to placebo on the primary endpoint (change from baseline at Week 6 in MADRS total score) ([1]; ITT (LOCF), test compound 200 mg and 400 mg, paroxetine 20 mg/day): Neither the 200-mg nor the 400-mg dose of the test compound was statistically significantly superior to placebo
MADRS response rate [1, 3]: 40%
MADRS response rate [1, 4]: 50%
MADRS remission rate [1, 3]: 20%
MADRS remission rate [1, 4]: 29%
CGI-S score, mean result [1, 3]: −1.5
MADRS total score, mean result [1, 3]: −14.8
CGI-S score, mean result [1, 4]: −1.6
MADRS total score, mean result [1, 4]: −15.0
superiority to placebo on the primary endpoint, men ([1]; men, test compound 200 mg): nominally statistically significant superiority to placebo
ABCD questionnaire items with statistically significant superiority to placebo ([1]; test compound 200 mg): 14 items
ABCD questionnaire items with statistically significant superiority to placebo ([1]; test compound 400 mg): 8 items
superiority to placebo on the primary endpoint, women ([1]; women, test compound 400 mg): statistically significant superiority to placebo
inhibition at 15 mg/kg (isolated mice; 1 h, 15 mg/kg PO, 60 min after dosing): 28%
inhibition at 22 mg/kg (isolated mice; 1 h, 22 mg/kg PO, 60 min after dosing): 44%
inhibition at 30 mg/kg (isolated mice; 1 h, 30 mg/kg PO, 60 min after dosing): 56%
ED50 (isolated mice; PO, inhibition of isolation-induced fighting, probit analysis, read-out: ED50 (mg/kg, PO) (confidence limits)): 25.9 mg/kg
IC50 [2]: > 100 µM

Reference: patent US9610274B2, “Methods for treating bipolar disorder” (priority 2010, dated 2017)
